Measurements: patent publication US4545991A, “Difficidin and derivative antibacterials” (Merck & Co., Inc., priority 1983, dated 1985)
≈ marks a conversion by molar mass, not a printed value. Where two headings read alike, the source gives them in different places.

What was measured:
Ps. aeruginosa [1] = experiment: MIC, in vitro agar dilution assay, aerobic bacteria (Table II); type: cell-based; details: Pseudomonas aeruginosa
[2] = system: Fusobacterium mortiferum Fox^r; experiment: MIC, in vitro agar dilution assay, anaerobic bacteria (Table III); type: cell-based; details: 10^6 CFU per spot, read-out: MIC
Prot. vulgaris = experiment: MIC, in vitro agar dilution assay, aerobic bacteria (Table II); type: cell-based; details: Proteus vulgaris, 10^6 CFU per spot, read-out: MIC
[3] = system: C. difficile Clind^r, Fox^r; experiment: MIC, in vitro agar dilution assay, anaerobic bacteria (Table III); type: cell-based; details: Clostridioides difficile, 10^6 CFU per spot, read-out: MIC
Ent. cloacae P99^+ = experiment: MIC, in vitro agar dilution assay, aerobic bacteria (Table II); type: cell-based; details: Enterobacter cloacae
[4] = system: Peptostreptococcus anaerobius; experiment: MIC, in vitro agar dilution assay, anaerobic bacteria (Table III); type: cell-based; details: 10^6 CFU per spot, read-out: MIC
Ps. aeruginosa [5] = experiment: MIC, in vitro agar dilution assay, aerobic bacteria (Table II); type: cell-based; details: Pseudomonas aeruginosa; remark: listed apart in the source
Propionibacterium acnes = experiment: MIC, in vitro agar dilution assay, anaerobic bacteria (Table III); type: cell-based; details: Cutibacterium acnes, 10^6 CFU per spot, read-out: MIC
[6] = system: B. fragilis NCCLS control strain; experiment: as above; type: cell-based; details: Bacteroides fragilis, 10^6 CFU per spot, read-out: MIC
Ent. cloacae P99^- = experiment: MIC, in vitro agar dilution assay, aerobic bacteria (Table II); type: cell-based; details: Enterobacter cloacae
Eubacterium limosum = experiment: MIC, in vitro agar dilution assay, anaerobic bacteria (Table III); type: cell-based; details: 10^6 CFU per spot, read-out: MIC
E. coli = experiment: MIC, in vitro agar dilution assay, aerobic bacteria (Table II); type: cell-based; details: Escherichia coli, 10^6 CFU per spot, read-out: MIC
Description: (§1) Further evaluations of the antibacterial spectrum of difficidin and oxydifficidin were undertaken, especially as compared to the antibacterial spectrum of the valuable antibiotic cefoxitin, which is well known for its wide spectrum of antibacterial activity. An in vitro agar dilution assay was used, inoculum 10^6 CFU per spot. Table II below illustrates the results obtained for various aerobic bacteria, and Table III illustrates the results obtained for various anaerobic bacteria.

Strep. faecalis = experiment: as above; type: cell-based; details: Enterococcus faecalis, 10^6 CFU per spot, read-out: MIC
Description: as §1

S. aureus = experiment: as above; type: cell-based; details: Staphylococcus aureus, 10^6 CFU per spot, read-out: MIC
Description: as §1

K. pneumoniae Kl^+ = experiment: as above; type: cell-based; details: Klebsiella pneumoniae, 10^6 CFU per spot, read-out: MIC
Sal. typhimurium = experiment: as above; type: cell-based; details: Salmonella enterica, 10^6 CFU per spot, read-out: MIC
S. aureus Gm^R Meth^R = experiment: as above; type: cell-based; details: Staphylococcus aureus
[7] = system: Bifidobacterium dentium Fox^r; experiment: MIC, in vitro agar dilution assay, anaerobic bacteria (Table III); type: cell-based; details: Bifidobacterium dentium
Ent. aerogenes = experiment: MIC, in vitro agar dilution assay, aerobic bacteria (Table II); type: cell-based; details: Klebsiella aerogenes
B. fragilis Pen^r = experiment: MIC, in vitro agar dilution assay, anaerobic bacteria (Table III); type: cell-based; details: Bacteroides fragilis, 10^6 CFU per spot, read-out: MIC
B. ovatus Pen^r = experiment: as above; type: cell-based; details: Bacteroides ovatus, 10^6 CFU per spot, read-out: MIC
[8] = system: B. distasonis Pen^r Fox^r; experiment: as above; type: cell-based; details: Parabacteroides distasonis, 10^6 CFU per spot, read-out: MIC
Actinomyces naeslundii = experiment: as above; type: cell-based; details: 10^6 CFU per spot, read-out: MIC
[9] = system: Clostridium perfringens NCCLS control strain; experiment: microbe, parasite or virus in culture; type: cell-based; details: Clostridium perfringens
C. ramosum = experiment: MIC, in vitro agar dilution assay, anaerobic bacteria (Table III); type: cell-based; details: Thomasclavelia ramosa, 10^6 CFU per spot, read-out: MIC
Prot. mirabilis Gm^R = experiment: MIC, in vitro agar dilution assay, aerobic bacteria (Table II); type: cell-based; details: Proteus mirabilis, 10^6 CFU per spot, read-out: MIC
E. coli TEM 2^+ = experiment: as above; type: cell-based; details: Escherichia coli
[10] = system: B. thetaiotaomicron Clind^r, NCCLS control strain; experiment: MIC, in vitro agar dilution assay, anaerobic bacteria (Table III); type: cell-based; details: Bacteroides thetaiotaomicron, 10^6 CFU per spot, read-out: MIC
E. coli DC 2 = experiment: MIC, in vitro agar dilution assay, aerobic bacteria (Table II); type: cell-based; details: Escherichia coli, DC2
C. difficile Fox^r = experiment: MIC, in vitro agar dilution assay, anaerobic bacteria (Table III); type: cell-based; details: Clostridioides difficile
Veillonella alcalescens = experiment: as above; type: cell-based; details: Veillonella parvula, 10^6 CFU per spot, read-out: MIC
[11] = system: Bacteriodes fragilis Metr^r, Pen^r; experiment: as above; type: cell-based; details: 10^6 CFU per spot, read-out: MIC
Ps. aeruginosa RPL 11^+ = experiment: MIC, in vitro agar dilution assay, aerobic bacteria (Table II); type: cell-based; details: Pseudomonas aeruginosa
[12] = system: B. distasonis Pen^r Fox^r Clind^r; experiment: MIC, in vitro agar dilution assay, anaerobic bacteria (Table III); type: cell-based; details: Parabacteroides distasonis, 10^6 CFU per spot, read-out: MIC
Prot. morganii Sm^R = experiment: MIC, in vitro agar dilution assay, aerobic bacteria (Table II); type: cell-based; details: Morganella morganii
Ser. marcescens = experiment: as above; type: cell-based; details: Serratia marcescens, 10^6 CFU per spot, read-out: MIC
E. coli TEM 2^+ DC 2 = experiment: as above; type: cell-based; details: Escherichia coli
[13] = system: B. fragilis Clind^r Fox^r Tet^r; experiment: MIC, in vitro agar dilution assay, anaerobic bacteria (Table III); type: cell-based; details: Bacteroides fragilis, 10^6 CFU per spot, read-out: MIC
[14] = system: B. thetaiotaomicron Clind^r; experiment: as above; type: cell-based; details: Bacteroides thetaiotaomicron, 10^6 CFU per spot, read-out: MIC
[15] = system: Klebsiella pneumoniae MB 4005; experiment: standard mouse protection test, experimental systemic infection; type: in vivo, CD1 female mice; details: Klebsiella pneumoniae, MB4005, ip, 168 h, × 2 i.p. doses (immediately after infection and 6 hours later), 7 days
Method: The antibacterial efficacy of difficidin and its derivatives was further determined in standard mouse protection tests. An experimental systemic infection was produced in CD1 female mice (Charles River Breeding Laboratories, Wilmington, MA) by the intraperitoneal injection of a suitably diluted broth culture of Klebsiella pneumoniae MB 4005. The test antibacterial compounds and the control drug (streptomycin) were administered parenterally (intraperitoneally) immediately after infection and again 6 hours later. At least 4 fourfold dilutions of each agent were tested. There were 5 mice at each dose level. […] Under the conditions of the test, all infected untreated mice died within 48 hours.
Mice were protected by the administration of the test antibacterial compounds or streptomycin at the median effective doses shown in Table IV below.

In the case of `CO[C@@]1(NC(=O)Cc2cccs2)C(=O)N2C(C(=O)O)=C(COC(N)=O)CS[C@@H]21` [Cefoxitin, cefoxitin, reference compound], the MIC (Ps. aeruginosa [1]) is reported as > 128 µg/mL, the MIC [2] is reported as 16 µg/mL (≈ 37.4 µM) and the MIC (Prot. vulgaris) is reported as 16 µg/mL (≈ 37.4 µM). For the same compound, the MIC [3] was 64 µg/mL (≈ 150 µM), the MIC (Ent. cloacae P99^+) was > 128 µg/mL and the MIC [4] was ≤ 0.008 µg/mL. The MIC (Ps. aeruginosa [5]) was > 128 µg/mL, the MIC (Propionibacterium acnes) was ≤ 0.008 µg/mL and the MIC [6] was 4 µg/mL (≈ 9.36 µM). The MIC (Ent. cloacae P99^-) was 16 µg/mL (≈ 37.4 µM), the MIC (Eubacterium limosum) was 0.25 µg/mL (≈ 0.585 µM) and the MIC (E. coli) was > 128 µg/mL. For the same compound, the MIC (Strep. faecalis) was > 128 µg/mL, the MIC (S. aureus; first unmarked strain) was 2 µg/mL (≈ 4.68 µM) and the MIC (S. aureus; second unmarked strain) was 2 µg/mL (≈ 4.68 µM). For the same compound, the MIC (K. pneumoniae Kl^+) was 4 µg/mL (≈ 9.36 µM), the MIC (Sal. typhimurium) was 8 µg/mL (≈ 18.7 µM) and the MIC (S. aureus Gm^R Meth^R) was > 128 µg/mL. The MIC [7] was 4 µg/mL (≈ 9.36 µM), the MIC (Ent. aerogenes) was > 128 µg/mL and the MIC (B. fragilis Pen^r) was 8 µg/mL (≈ 18.7 µM). It also gave an MIC (B. ovatus Pen^r) of 8 µg/mL (≈ 18.7 µM), an MIC [8] of 64 µg/mL (≈ 150 µM) and an MIC (Actinomyces naeslundii) of 0.015 µg/mL (≈ 0.0351 µM). It also gave an MIC [9] of 0.5 µg/mL (≈ 1.17 µM), an MIC (C. ramosum) of 4 µg/mL (≈ 9.36 µM) and an MIC (Prot. mirabilis Gm^R) of 32 µg/mL (≈ 74.9 µM). For the same compound, the MIC (E. coli TEM 2^+) was 4 µg/mL (≈ 9.36 µM), the MIC [10] was 16 µg/mL (≈ 37.4 µM) and the MIC (E. coli DC 2) was 1 µg/mL (≈ 2.34 µM). It also gave an MIC (C. difficile Fox^r) of 128 µg/mL (≈ 299 µM), an MIC (Veillonella alcalescens) of 0.5 µg/mL (≈ 1.17 µM) and an MIC [11] of 2 µg/mL (≈ 4.68 µM). For the same compound, the MIC (Ps. aeruginosa RPL 11^+) was > 128 µg/mL, the MIC [12] was 16 µg/mL (≈ 37.4 µM) and the MIC (Prot. morganii Sm^R) was 16 µg/mL (≈ 37.4 µM). The MIC (Ser. marcescens) was 64 µg/mL (≈ 150 µM), the MIC (E. coli TEM 2^+ DC 2) was 1 µg/mL (≈ 2.34 µM) and the MIC [13] was 32 µg/mL (≈ 74.9 µM). It also gave an MIC [14] of 16 µg/mL (≈ 37.4 µM).
Compound `[H]/N=C(/N)N[C@H]1[C@H](O)[C@@H](O)[C@H](O[C@@H]2O[C@@H](C)[C@](O)(C=O)[C@H]2O[C@@H]2O[C@@H](CO)[C@H](O)[C@@H](O)[C@@H]2NC)[C@@H](N/C(N)=N\[H])[C@@H]1O` [Streptomycin, streptomycin, reference compound] has an ED50 ([15]; Test No. 1) of 0.38 mg/kg, an ED50 ([15]; Test No. 2) of 1.41 mg/kg and an ED50 ([15]; Test No. 3) of 0.38 mg/kg.
